Legend:
[1] = system: human foreskin fibroblasts (HFF); assay: In vitro HFF proliferation assay (Incucyte confluency); assay type: cell-based; conditions: 200 µM compound, DMEM with 16.8 µM pantothenate, 96 h; mean ± range/2 of two experiments
Procedure: HFF cells were maintained in vitro in DMEM supplemented with 10% (vol/vol) newborn calf serum, 50 units/mL penicillin, 50 µg/mL streptomycin, 10 µg/mL gentamicin, 0.2 mM L-glutamine, and 0.25 µg/mL amphotericin B, as previously described ([99]). HepG2 cells were maintained in RPMI-1640 medium (Thermo Fisher Scientific, catalogue number 72400120) supplemented with 10% (vol/vol) fetal bovine serum, 50 units/mL penicillin, and 50 µg/mL streptomycin.
In vitro HFF proliferation assays were performed as previously described by Howieson et al. ([32]), with modifications. Confluent HFF cells (in a 75 cm^2 flask) were harvested by treatment with 1 × trypsin–EDTA (0.25% [wt/vol] trypsin +0.2 g/L EDTA) and diluted in 21 mL of DMEM supplemented with 10% [vol/vol] newborn calf serum ([32]). Assays were set up in 96-well microtiter plates in a similar way to that described for the antiplasmodial activity assay. Cycloheximide (10 µM) was used as a non-proliferation control, and 0.1% (vol/vol) DMSO served as a 100% proliferation control. The plates were incubated at 37°C in a CO2 incubator for 96 h, and the Incucyte Live-Cell Analysis System (Essen BioScience) was used to capture cellular changes and assess cell growth in each well over time. Each well was scanned to capture bright field images, and confluency was assessed at the end of the 96 h incubation, which was then used to evaluate the effect of each compound on the proliferation of HFF cells by comparing it to the 100% proliferation control. The bottom of the curve was constrained to 0 when fitting for HFF proliferation assays using GraphPad Prism.

PfPanK = PfPanK (Plasmodium falciparum, UniProt Q8IL92+Q8ILP4); assay: [14C]pantothenate phosphorylation assay in P. falciparum lysates (Somogyi reagent); assay type: biochemical; conditions: for inhibition at 2 µM: read-out: Inhibition of pantothenate phosphorylation
Sequence of PfPanK (Q8ILP4 entry or part of it): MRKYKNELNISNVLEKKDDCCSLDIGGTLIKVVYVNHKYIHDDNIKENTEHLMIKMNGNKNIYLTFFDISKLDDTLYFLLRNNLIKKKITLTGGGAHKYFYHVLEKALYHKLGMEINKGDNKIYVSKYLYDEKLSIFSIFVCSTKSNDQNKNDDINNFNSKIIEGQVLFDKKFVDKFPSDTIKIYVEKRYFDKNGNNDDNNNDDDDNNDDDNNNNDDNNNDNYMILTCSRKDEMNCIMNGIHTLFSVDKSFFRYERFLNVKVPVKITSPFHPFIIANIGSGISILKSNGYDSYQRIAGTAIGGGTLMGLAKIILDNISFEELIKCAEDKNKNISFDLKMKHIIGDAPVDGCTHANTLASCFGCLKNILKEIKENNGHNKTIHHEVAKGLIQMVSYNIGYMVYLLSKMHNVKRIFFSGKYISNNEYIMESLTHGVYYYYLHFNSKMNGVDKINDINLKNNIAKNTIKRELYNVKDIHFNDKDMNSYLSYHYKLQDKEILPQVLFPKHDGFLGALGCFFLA
Sequence of PfPanK (Q8IL92 entry or part of it): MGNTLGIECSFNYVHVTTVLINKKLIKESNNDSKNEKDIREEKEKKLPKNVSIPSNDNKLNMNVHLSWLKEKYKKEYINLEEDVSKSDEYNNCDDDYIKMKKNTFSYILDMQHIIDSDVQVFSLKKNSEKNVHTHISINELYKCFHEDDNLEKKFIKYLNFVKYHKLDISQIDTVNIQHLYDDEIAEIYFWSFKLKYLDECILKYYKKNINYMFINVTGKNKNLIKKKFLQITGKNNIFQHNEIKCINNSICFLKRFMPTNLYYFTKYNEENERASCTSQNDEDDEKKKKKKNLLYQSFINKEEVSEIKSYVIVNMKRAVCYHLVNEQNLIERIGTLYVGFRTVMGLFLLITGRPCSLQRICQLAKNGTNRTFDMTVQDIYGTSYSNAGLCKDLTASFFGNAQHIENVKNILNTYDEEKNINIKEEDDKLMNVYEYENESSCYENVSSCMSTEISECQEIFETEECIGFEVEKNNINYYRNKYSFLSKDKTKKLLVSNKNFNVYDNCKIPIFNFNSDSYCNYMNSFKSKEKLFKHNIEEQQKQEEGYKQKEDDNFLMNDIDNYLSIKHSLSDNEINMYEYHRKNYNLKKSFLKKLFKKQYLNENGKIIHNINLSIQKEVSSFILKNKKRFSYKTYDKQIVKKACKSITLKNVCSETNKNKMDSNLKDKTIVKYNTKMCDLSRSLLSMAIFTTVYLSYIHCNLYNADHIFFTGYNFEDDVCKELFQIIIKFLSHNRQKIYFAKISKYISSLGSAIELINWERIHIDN
Procedure: Parasite lysates were prepared from saponin-isolated mature trophozoite-stage parasites as described by Saliba et al. ([14]), with modifications. Briefly, a culture with predominantly trophozoite stage parasites was thoroughly mixed with saponin (0.05% [wt/vol] final concentration) and centrifuged at 2,000 × g for 8 min at 4°C. The pelleted parasites were then transferred to a 1.5 mL tube and washed three times (16,000 × g, 1 min each time) with cold malaria saline (125 mM NaCl, 5 mM KCl, 25 mM HEPES, 20 mM glucose, 1 mM MgCl2, pH 7.1). Subsequently, washed saponin-isolated parasites were suspended in 1 mL of 10 mM Tris/Cl, pH 7.4, followed by trituration (10 times) through a SafetyGlide injection needle (25-gauge). The lysates were then centrifuged at 16,000 × g for 30 min at 4°C, and the supernatant was transferred to a new tube. The concentration of the lysates was then determined using the Bradford reagent.
Phosphorylation of [^14C]pantothenate was determined using a combination of zinc sulphate (ZnSO4) and barium hydroxide (Ba(OH)2) (Somogyi reagent) as previously described ([78]). In the 125 min time course, each reaction (650 µL) contained a final concentration of 50 mM Tris-Cl (pH 7.4), 5 mM ATP, 5 mM MgCl2, 2 µM (0.1 µCi/mL) [^14C]pantothenate, and 60 µg of total parasite lysate. The compounds were added at their 10× antiplasmodial IC50 values or at various concentrations to generate dose–response curves. Mixtures were incubated at 37°C throughout the experiment, and reactions were initiated by the addition of the lysates. A reaction with identical components to the test reactions but lacking the parasite lysate was prepared to serve as a no-phosphorylation negative control, and a reaction with DMSO vehicle control (0.2% vol/vol) served as a positive control. At pre-determined time points, 50 µL of the reaction mixture was transferred in triplicate to wells of a 96-well filter plate with 0.2 µm hydrophilic polyvinylidene fluoride (PVDF) membrane filter (Corning), which had been pre-loaded with 50 µL of 150 mM Ba(OH)2. The reaction mixtures were thoroughly mixed with the Ba(OH)2 in the wells to precipitate the enzyme and terminate the phosphorylation reaction. After all reactions had been terminated, phosphorylated compounds in each well were precipitated by the addition of 50 µL of 150 mM ZnSO4 to generate the Somogyi reagent. The plate was then washed twice with deionized H2O and once with 95% (vol/vol) ethanol using a vacuum manifold to remove the non-phosphorylated [^14C]pantothenate and was subsequently dried overnight at 37°C in a non-humidified incubator. The following day, 30 µL of Microscint-O (PerkinElmer) was added to each well, and the plate was sealed on the top and bottom with TopSeal-A Plus sealing film (PerkinElmer). A Packard Microplate Scintillation and Luminescence Counter was used to measure the radioactivity in each well immediately after the plate had been sealed. To determine the total radioactivity in each phosphorylation assay, 50 µL of each reaction mixture was added to the wells of an OptiPlate-96 microplate (PerkinElmer) in triplicate and was then thoroughly mixed with 150 µL of Microscint-40 (PerkinElmer), and the radioactivity was measured in the same manner. Phosphorylation of [^14C]pantothenate, calculated as a percentage of the radioactivity measured in the test wells relative to the total radioactivity in the phosphorylation assay, was then plotted against the reaction time. Each data set was analyzed by linear regression, from which the phosphorylation rate of each reaction was then determined and expressed as a percentage of the phosphorylation rate of the DMSO-positive control reaction.

| SMILES | Proliferation (%) of HFF with 200 µM Cpd and 16.8 µM Pan [1] | inhibition at 2 µM (PfPanK) | Fold by which IC50 at inhibiting pantothenate phosphorylation is higher than Km for pantothenate of PfPanK (PfPanK; relative to reported Km 270 ± 95 nM) |
| --- | --- | --- | --- |
| CC(C)(CO)[C@@H](O)C(=O)NCc1csc(-c2ccccc2)n1 [Compound 2e] | 100 ± 1% | ~80% | approximately 2.1 fold |
| CC(C)(CO)[C@@H](O)C(=O)NCc1cnc(-c2ccccc2)s1 [Compound 3f] | 100 ± 1% | > 90% |  |
| CC(C)(CO)[C@@H](O)C(=O)NCc1nc(CCc2ccccc2)cs1 [Compound 1e] | 101 ± 2% | > 90% |  |
| CC(C)(CO)[C@@H](O)C(=O)NCc1csc(Cc2ccccc2)n1 [Compound 2c] | 101 ± 2% | > 90% |  |
| CCCCCc1csc(CNC(=O)[C@H](O)C(C)(C)CO)n1 [Compound 1c] | 97 ± 4% | > 90% |  |
| CCCCc1csc(CNC(=O)[C@H](O)C(C)(C)CO)n1 [Compound 1a] | 100 ± 1% | > 90% |  |

Reference: PMC12406685, “Thiazole substitution of a labile amide bond—a new option toward antiplasmodial pantothenamide-mimics” (Antimicrobial Agents and Chemotherapy, 2025)
